Test system: HMG-CoA reductase
Test: in vitro HMG-CoA reductase inhibition (protocol of J. Med. Chem., 1985, 28, page 347)
Type: biochemical
Conditions: percent of the activity exhibited by mevinolin in the same protocol
Method: The intrinsic HMG-CoA reductase inhibition activity of the claimed compounds is measured in the in vitro protocol described is J. Med. Chem., 1985, 28, page 347.

relative inhibitory activity: 50%
SMILES: C=C1C=C2C=C[C@H](C)[C@H](CC[C@@H](O)C[C@@H](O)CC(=O)O)C2[C@@H](OC(=O)C(C)CC)C1 (stereo partly shown)

From US4885314A, “Novel HMG-CoA reductase inhibitors” (Merck & Co., Inc., priority 1988, dated 1989)
